Results: patent US20250213560A1, “NITROGEN-CONTAINING HETEROCYCLIC COMPOUNDS HAVING PHENYL GROUP AND USES THEREOF” (BNH RESEARCH CO., LTD., priority 2022, published 2025)

What was measured:
[1] = test system: mouse barrel cortex (layer 4); experiment: Ex vivo synaptic plasticity (TC EPSC potency, GABA/AMPA ratio) in barrel cortex after in vivo administration; settings: C57BL/6J mice
Text: Eight weeks old male C57BL/6J mice were anesthetized with isoflurane during surgery. The mice were then be placed in a stereotaxic frame (RWD Life Science, China). The parietal and the frontal bones were exposed by a sagittal incision of the scalp at the midline from the level of the eyes to the occipital protuberance. A small burr hole was drilled after exposing the skull. The injection cannula was placed at the following coordinates: (Mouse: Bregma-3.30, lateral-1.50, and ventral 0.7 mm). Sterile saline solution (+/−a compound of the present disclosure) was perfused at a constant flow rate of […] through the injection cannula using a mini-Os pump (DURECT Corporation ALZET Osmotic Pumps, CA). Implantation was done in layer 4 of the barrel cortex ipsilateral. To estimate extent of the diffusion of the injected compound in layer 4 barrel cortex during pump injection, methylene blue was first injected to stain the diffusion area. On average methylene blue diffused to 2000.0 μm away from the injection site (the total area of the barrel cortex region is about 1500 μm). Based on this analysis, the present inventors recorded from barrel cortex area.
The compound was diluted to 25 mg/kg using DMSO: PEG400: Saline (5:55:40). The compound was administered intraperitoneal at 10:00 a.m. daily (i.p. volume was 200 ul) for about 11 to 12 days. Control group was also administered by i.p. injection in the same manner using the vehicle (DMSO: PEG400: Saline (5:55:40)). 5 mice were used for the compound administration group and the control group, respectively.
For TC or hippocampus slice preparation, 9 to 10 weeks-old male C57BL/6J mice were anesthetized with isoflurane. Then, the brain was rapidly cooled via transcardial perfusion with ice-cold sucrose-artificial cerebrospinal fluid (aCSF). The brain was removed and placed in ice-cold sucrose aCSF. Paracoronal slices were prepared at an angle of 50° relative to the midline on a ramp at an angle of 10°. Then, slices were incubated in aCSF at 35° C. for 30 minutes to recover. […]
Whole cell recordings were made using a multiclamp 700A (Molecular devices, Sunnyvale, CA)digitized at 10 kHz and filtered at 2 kHz. Input resistance and series resistance were monitored continuously during recordings, as previously described (see Isaac, Crair, Nicoll, & Malenka, 1997, Silent synapses during development of thalamocortical inputs, DOI: 10.1016/s0896-6273 (00) 80267-6).
For the minimal stimulation protocol (Potency), VB thalamic stimulation intensity was adjusted to find the lowest intensity that elicited a mixture of synaptic responses and failures. Failure rate was calculated as the number of failures/total number of trials. […]

BDNF = BDNF expression in SH-SY5Y cells; format: cell-based, human; settings: 1 μM, application for 6 and 24 hours
Experimental: Human undifferentiated neuroblastoma cell line SH-SY5Y and human embryonic kidney cell line (HEK)-293T were purchased from Korean Cell Line Bank (Korea) and Takara (Japan), respectively. Cells were grown in HyClone Minimal Essential Medium (MEM) and Dulbecco's Modified Eagle Medium (DMEM), respectively, supplemented with 10% (v/v) fetal bovine serum (FBS), penicillin (100 U/mL), and streptomycin ([…]). Cells were maintained in a humidified atmosphere of 95% air and 5% CO2 at 37° C. Cells were passaged 10 times at maximum. Cells were dissociated using 0.05% trypsin-EDTA solution and the cells were seeded in new culture dishes for maintenance.
RT-PCR was used to measure the amount of BDNF and GluN2B in response to compounds of the present disclosure. 293T cells were dissociated using 0.05% Trypsin-EDTA solution and seeded in 24 well or 6 well dishes for RNA work. After incubation at 37° C. in a humidified atmosphere with 5% CO2 for 24 hours, the culture medium was replaced by a medium containing a series of concentrations of tested compounds diluted with the DMEM without FBS. Time course experiments were performed. The same volume of DMSO was used for negative control.
Similarly, BnH12003 (1 μM) augmented BDNF and GluN2B expression by application for 6 and 24 hours in SH-SY5Y cells (FIGS. 11A and 11B).

[2] = Os pump, 3 μM continuously for 2 weeks, barrel cortex layer 4
[3] = intraperitoneal 25 mg/kg once a day for about 11 or 12 days

## C[C@H]1CC[C@@H](C(=O)O)CN1C(=O)Cc1ccc(-c2cncnc2)cc1 [BnH12003, (3R,6S)-6-methyl-1-(2-(4-(pyrimidin-5-yl)phenyl)acetyl) piperidine-3-carboxylic acid]
[1]; [2]
  GABA/AMPA ratio (balance of excitation/inhibition): balance of excitation/inhibition was maintained
  excitatory TC synaptic potency (TC potency): significantly increased
[1]; [3]
  GABA/AMPA ratio (balance of excitation/inhibition): maintaining the balance of excitation/inhibition
  TC synaptic potency in the sensory cortex: increase TC synaptic potency
BDNF
  BDNF expression: augmented
